Measured values as given in patent US20100009970A1, “COMPOSITIONS AND METHODS FOR TREATMENT OF VIRAL DISEASES” (Combinatorx (Singapore) Pte. Ltd., priority 2008, published 2010).
Counter-ions that a name gives are not always drawn.

Tested on: Huh7 cells expressing a subgenomic RNA replicon of Con1 (genotype 1b) sequence origin
Test: microbe, parasite or virus in culture
Conditions: Hepatitis C virus, GETYPE1B, Huh-7, read-out: IC25 (values noted with an asterisk)

For `O=C1CC(=O)c2c(Cl)c(Cl)c(Cl)c(Cl)c21` [UCH-L3 inhibitor, 4,5,6,7-Tetrachloroindan-1,3-dione, reference compound], the IC25 was 19.7 µM.

Same assay, conditions: Hepatitis C virus, Huh-7

`Nc1cccc(OCCCCCOc2cccc(N)c2)c1` [3,3′-(Pentamethylenedioxy)dianiline, reference compound] and `Nc1ccc(OCCCCCOc2ccc(N)cc2)cc1` [1,5-Bis(4-aminophenoxy)pentane, reference compound] are within 1.5-fold of each other in IC50: 1.63 µM for the first, 1.7 µM for the second.

First: Oc1ccc(-c2nc(-c3ccc(F)cc3)c(-c3ccncc3)[nH]2)cc1 [SB-202190, reference compound]
Second: O=C1c2ccccc2-[n+]2ccc3c([nH]c4ccccc43)c21 [Fascaplysin, reference compound]
The IC50 of the first is 12-fold higher: 5.18 µM for the first, 0.444 µM for the second.

`CCOC(=O)c1ccc(N)cc1` [Benzocaine, reference compound] and `COc1ccc(O)cc1` [Mequinol, reference compound] are within 1.5-fold of each other in IC50: 13.9 µM for the first, 18.7 µM for the second.

First: O=C(CCCCCCC(=O)NO)NO [Suberohydroxamic acid, suberohydroxamic acid, reference compound]
Second: COc1cc(CNC(=O)CCCC/C=C/C(C)C)ccc1O [Capsaicin, reference compound]
The IC50 of the first is 2.9-fold lower: 4.02 µM for the first, 11.7 µM for the second.

`CN(C)CCCN1c2ccccc2Sc2ccccc21` [Promazine (e.g., hydrochloride), promazine, reference compound] and `CN(C)CCCN1c2ccccc2CCc2ccccc21` [Imipramine (e.g., hydrochloride), Imipramine, reference compound] are within 1.5-fold of each other in IC50: 16.1 µM for the first, 16.9 µM for the second.

Compared with `Nc1nc[nH]n1` [Amitrole], `Nc1n[n+]([O-])c2ccccc2[n+]1[O-]` [Tirapazamine, reference compound] is 8-fold lower in IC50: 14.6 µM for the first, 1.83 µM for the second. The second is the more potent here.

First: C[C@H]1CC(=O)C[C@@H]2CC[C@H]3[C@@H]4CC[C@H](O)[C@@]4(C)CC[C@@H]3[C@]21C [Mesterolone, mesterolone, reference compound]
Second: C[C@]12Cc3c[nH]nc3C[C@@H]1CC[C@@H]1[C@@H]2CC[C@@]2(C)[C@H]1CC[C@]2(C)O [Stanozolol, stanozolol, reference compound]
The IC50 of the first is 2.9-fold lower: 5.18 µM for the first, 15.2 µM for the second. The first is the more potent here.

First: CC[N+](C)(CC)CCC[n+]1c(-c2ccccc2)c2cc(N)ccc2c2ccc(N)cc21 [Propidium (e.g., iodide), Propidium, reference compound]
Second: CN(C)CCOC(C)(c1ccccc1)c1ccc(Cl)cc1 (stereo not drawn) [Chlorphenoxamine (e.g., hydrochloride), chlorphenoxamine, reference compound]
The IC50 of the first is 1.7-fold lower: 9.38 µM for the first, 16.2 µM for the second. The first is the more potent here.

Compared with `COC[C@H]1OC(=O)c2coc3c2[C@@]1(C)C1=C(C3=O)[C@@H]2CCC(=O)[C@@]2(C)C[C@H]1OC(C)=O` [Wortmannin, wortmannin, reference compound], `COc1ccc2c(c1OC)C(=O)O[C@@H]2[C@H]1c2c(cc3c(c2OC)OCO3)CCN1C` [Noscapine, reference compound] is 5-fold higher in IC50: 3.16 µM for the first, 15.8 µM for the second.

First: COc1cc(C(=O)NS(=O)(=O)c2ccccc2C)ccc1Cc1cn(C)c2ccc(NC(=O)OC3CCCC3)cc12 [Zafirlukast, reference compound]
Second: COc1cc(NC(=O)Nc2cccc(CNC(=O)O[C@H]3CCOC3)c2)ccc1-c1cnco1 [Merimepodib (VX-497), merimepodib, reference compound]
The IC50 of the first is 39-fold higher: 18.5 µM for the first, 0.475 µM for the second. The second is the more potent here.

First: CC(=O)O[C@H]1C(=O)[C@@]2(C)[C@H]([C@H](OC(=O)c3ccccc3)[C@]3(O)C[C@H](OC(=O)[C@H](O)[C@@H](NC(=O)c4ccccc4)c4ccccc4)C(C)=C1C3(C)C)[C@]1(OC(C)=O)CO[C@@H]1C[C@@H]2O [Paclitaxel, reference compound]
Second: CC[C@]1(O)C[C@H]2CN(CCc3c([nH]c4ccccc34)[C@@](C(=O)OC)(c3cc4c(cc3OC)N(C=O)[C@H]3[C@@](O)(C(=O)OC)[C@H](OC(C)=O)[C@]5(CC)C=CCN6CC[C@]43[C@@H]65)C2)C1 [Vincristine (e.g., sulfate), Vincristine, reference compound]
The IC50 of the first is 2.2-fold lower: 0.0092 µM for the first, 0.02 µM for the second. The first is the more potent here.

`O=C(CCCN1CCC(O)(c2cccc(C(F)(F)F)c2)CC1)c1ccc(F)cc1` [Trifluperidol, reference compound] and `CN1CCCC(n2nc(Cc3ccc(Cl)cc3)c3ccccc3c2=O)CC1` (stereo not drawn) [Azelastine, azelastine, reference compound] are within 1.5-fold of each other in IC50: 7.8 µM for the first, 6.22 µM for the second.

`C=C1C(=O)O[C@H]2[C@H]1CC/C(C)=C/CC[C@@]1(C)O[C@@H]21` [Parthenolide, reference compound] and `CC[C@H](C)C(=O)O[C@H]1CCC=C2C=C[C@H](C)[C@H](CC[C@@H]3C[C@@H](O)CC(=O)O3)[C@H]21` [Mevastatin, reference compound] are within 1.5-fold of each other in IC50: 2.69 µM for the first, 3.45 µM for the second.

First: Oc1cc(O)cc(/C=C/c2ccc(O)c(O)c2)c1 [Piceatannol, reference compound]
Second: Oc1cccc2c(O)nccc12 [1,5-Isoquinolinediol, reference compound]
The IC50 of the first is 4.7-fold lower: 5.47 µM for the first, 25.9 µM for the second. The first is the more potent here.

First: C=C(NC(=O)C(=C)NC(=O)c1csc(C2=N[C@@H]3c4csc(n4)[C@H]4NC(=O)c5csc(n5)[C@H]([C@](C)(O)[C@@H](C)O)NC(=O)[C@H]5CSC(=N5)/C(=C/C)NC(=O)[C@H]([C@@H](C)O)NC(=O)c5csc(n5)[C@]3(CC2)NC(=O)[C@H](C)NC(=O)C(=C)NC(=O)[C@H](C)NC(=O)[C@H]([C@@H](C)CC)N[C@@H]2C=Cc3c([C@H](C)O)cc(nc3[C@H]2O)C(=O)O[C@@H]4C)n1)C(N)=O [Thiostrepton, reference compound]
Second: CC[C@@H](C(=O)O)[C@@H]1O[C@@H]([C@@H](C)[C@H](O)[C@H](C)C(=O)[C@H](CC)[C@H]2O[C@]3(C=C[C@@H](O)[C@]4(CC[C@@](C)([C@H]5CC[C@](O)(CC)[C@H](C)O5)O4)O3)[C@H](C)C[C@@H]2C)[C@@H](C)C[C@@H]1C [Narasin, reference compound]
The IC50 of the first is 22-fold higher: 3.84 µM for the first, 0.176 µM for the second.

Compared with `CN(C)C(=S)SSC(=S)N(C)C` [Thiram, thiram], `CCN(CC)CCOCCOC(=O)C(CC)(CC)c1ccccc1` [Oxeladin, reference compound] is 2.4-fold higher in IC50: 3.64 µM for the first, 8.72 µM for the second.

`CC(C)c1nc(CN(C)C(=O)N[C@H](C(=O)N[C@@H](Cc2ccccc2)C[C@H](O)[C@H](Cc2ccccc2)NC(=O)OCc2cncs2)C(C)C)cs1` [Ritonavir, reference compound] and `CCOc1cc(CC(=O)N[C@@H](CC(C)C)c2ccccc2N2CCCCC2)ccc1C(=O)O` [Repaglinide, reference compound] are within 1.5-fold of each other in IC50: 14.9 µM for the first, 12.2 µM for the second.

Going from `CC(C)(C)NC(=O)NC(C(=O)N1C[C@H]2[C@@H]([C@H]1C(=O)NC(CC1CCC1)C(=O)C(N)=O)C2(C)C)C(C)(C)C` (stereo partly drawn) [Boceprevir (SCH 503034), Boceprevir, reference compound] to `CCC(C)(C)C(=O)O[C@H]1C[C@@H](C)C=C2C=C[C@H](C)[C@H](CC[C@@H](O)C[C@@H](O)CC(=O)O)[C@H]21` [Simvastatin hydroxy acid, ammonium salt, simvastatin hydroxy acid, ammonium salt, reference compound], the IC50 rises from 0.259 µM to 13.4 µM (52-fold). The first is the more potent here.

Going from `CC[C@@]1(O)C(=O)OCc2c1cc1n(c2=O)Cc2cc3ccccc3nc2-1` [Camptothecin, camptothecin, reference compound] to `N=C(NCc1ccccc1)NC(=O)c1nc(Cl)c(N)nc1N` [Benzamil (e.g., HCl), benzamil, reference compound], the IC50 rises from 0.026 µM to 4.73 µM (180-fold).

First: CC1=C(/C=C/C(C)=C/C=C/C(C)=C/C(=O)Nc2ccc(O)cc2)C(C)(C)CCC1 [Fenretinide, reference compound]
Second: CC(=O)Oc1ccccc1C(=O)Nc1ncc([N+](=O)[O-])s1 [Nitazoxanide, nitazoxanide, reference compound]
The IC50 of the first is 6.2-fold lower: 2.26 µM for the first, 14 µM for the second. The first is the more potent here.

First: C[C@]12CC[C@@H]3c4ccc(O)cc4C[C@@H](CCCCCCCCC[S+]([O-])CCCC(F)(F)C(F)(F)F)[C@H]3[C@@H]1CC[C@@H]2O (stereo partly drawn) [Fulvestrant, reference compound]
Second: CCCC1O[C@@H]2C[C@H]3[C@@H]4CCC5=CC(=O)C=C[C@]5(C)[C@H]4[C@@H](O)C[C@]3(C)[C@]2(C(=O)CO)O1 (stereo partly drawn) [Budesonide, budesonide, reference compound]
The IC50 of the first is 5.1-fold lower: 3.05 µM for the first, 15.7 µM for the second.

Compared with `N[C@@H](Cc1cc(I)c(Oc2cc(I)c(O)c(I)c2)c(I)c1)C(=O)O` [Levothyroxine (e.g., sodium), Levothyroxine, reference compound], `COc1cc(C(=O)OCCCN2CCCN(CCCOC(=O)c3cc(OC)c(OC)c(OC)c3)CC2)cc(OC)c1OC` [Dilazep (e.g., dihydrochloride), Dilazep, reference compound] is 3.7-fold higher in IC50: 3.79 µM for the first, 13.9 µM for the second. The first is the more potent here.

First: C[C@@]1(O)[C@H](O)[C@@H](CO)O[C@H]1n1ccc(N)nc1=O [2′-C-Methylcytidine, 2′-C-methylcytidine, reference compound]
Second: N=c1ccn2c(n1)O[C@H]1[C@H](O)[C@@H](CO)O[C@H]12 [Cyclocytidine (e.g., hydrochloride), Cyclocytidine, reference compound]
The IC50 of the first is 8.9-fold higher: 1.63 µM for the first, 0.183 µM for the second. The second is the more potent here.

First: COc1ccc2cc1Oc1ccc(cc1)C[C@H]1c3c(cc4c(c3Oc3cc5c(cc3OC)CCN(C)[C@@H]5C2)OCO4)CCN1C [Cepharanthine, reference compound]
Second: CC(C)N1CCN(c2ccc(OCC3COC(Cn4cncn4)(c4ccc(Cl)cc4Cl)O3)cc2)CC1 (stereo not drawn) [Terconazole, reference compound]
The IC50 of the first is 7.6-fold higher: 19.5 µM for the first, 2.55 µM for the second.

Same assay, conditions: Hepatitis C virus, Huh-7, read-out: IC50 in our hands

Molecule `COc1cc(C(=O)NS(=O)(=O)c2ccccc2C)ccc1Cc1cn(C)c2ccc(NC(=O)OC3CCCC3)cc12` [Zafirlukast, reference compound] has an IC50 of 18.5 µM.

Same assay, conditions: Hepatitis C virus, Huh-7, read-out: Max Effect@CC30 (inhibition)

First: CSc1ccc(Oc2ccccc2CN(C)C)cc1 [Compound 35, N,N-dimethyl(2-(4-(methylthio)phenoxy)phenyl)methanamine]
Second: COc1cccc(Oc2ccc(Br)cc2CN(C)C)c1 [Compound 38, (5-bromo-2-(3-methoxyphenoxy)phenyl)-N,N-dimethylmethanamine]
The Emax of the first is higher: 48% for the first, 42% for the second.

With `CNCc1cc(S(N)(=O)=O)ccc1Oc1ccc(Br)cc1` [Compound 44, 4-(4-bromophenoxy)-3-((methylamino)methyl)benzenesulfonamide] the Emax was 32.1%.

Tested on: not listed separately
Test: in vitro
Conditions: human, CC50 (uM) [SG]

In the case of `CNc1cc(S(N)(=O)=O)ccc1Oc1ccc(SC)c(C)c1` [Compound 62, 4-(3-methyl-4-(methylthio)phenoxy)-3-(methylamino)benzenesulfonamide], the CC50 is reported as > 50 µM.
